Laboratory results: patent US9750759B2, “Antitumoral compounds” (priority 2008, dated 2017)
Where two headings read alike, the source gives them in different places.

What was measured:
Experiment in all cases: cells
Format in all cases: cell-based
A549 = settings: Homo sapiens; for GI50: concentration that produces 50% growth inhibition; for IC (total growth inhibition): read-out: TGI
Excerpt: (§1) The aim of this assay is to evaluate the in vitro cytostatic (ability to delay or arrest tumor cell growth) or cytotoxic (ability to kill tumor cells) activity of the samples being tested.
(§2) A colorimetric type of assay, using sulforhodamine B (SRB) reaction has been adapted for a quantitative measurement of cell growth and viability (following the technique described by Skehan P et al. J. Natl. Cancer Inst. 1990, 82, 1107-1112).
(§3) This form of assay employs SBS-standard 96-well cell culture microplates (Faircloth et al. Methods in cell science, 1988, 11(4), 201-205; Mosmann et al, Journal of Immunological. Methods, 1983, 65(1-2), 55-63). All the cell lines used in this study, derived from different types of human cancer, were obtained from the American Type Culture Collection (ATCC).
(§4) Cells were maintained in Dulbecco's Modified Eagle Medium (DMEM) supplemented with 10% Fetal Bovine Serum (FBS), 2 mM L-glutamine, 100 U/mL penicillin and 100 U/mL streptomycin at 37° C., 5% CO2 and 98% humidity. For the experiments, cells were harvested from subconfluent cultures using trypsinization and resuspended in fresh medium before counting and plating.
(§5) Cells were seeded in 96 well microtiter plates at 5×10^3 cells per well in aliquots of 150 μL, and allowed to attach to the plate surface for 18 hours in drug free medium. One control (untreated) plate of each cell line was fixed (as described below) and used for time zero reference value. Afterwards, test samples were added to the cultures in ten serial dilutions, in aliquots of 50 μL, ranging from 10 to 0.00262 μg/mL. After 48 hours exposure, the antitumor effect was estimated by the SRB method: Briefly, cells were washed twice with PBS, fixed for 15 min in 1% glutaraldehyde solution, rinsed twice in PBS, and stained in 0.4% SRB solution for 30 min at room temperature. Cells were then rinsed several times with 1% acetic acid solution and air-dried. SRB was then extracted in 10 mM trizma base solution and the absorbance measured in an automated spectrophotometric plate reader at 490 nm. Cell survival was expressed as percentage of control cell growth. The final effect of the sample being tested was estimated by applying the NCI algorithm (Boyd M R and Paull K D. Drug Dev. Res. 1995, 34, 91-104).
(§6) Using the mean±SD of triplicate cultures, a dose-response curve was automatically generated using nonlinear regression analysis. Three reference parameters were calculated (NCI algorithm) by automatic interpolation: GI50=concentration that produces 50% growth inhibition; TGI=total growth inhibition (cytostatic effect) and LC50=concentration that produces 50% net cell killing (cytotoxic effect).

MDA-MB-231 = settings: Homo sapiens; for GI50: concentration that produces 50% growth inhibition; for IC (total growth inhibition): read-out: TGI
Excerpt: as §1, §2, §3, §4, §5, §6

HT29 = settings: Homo sapiens; for GI50: concentration that produces 50% growth inhibition; for IC (total growth inhibition): total growth inhibition (cytostatic effect), read-out: TGI
Excerpt: as §1, §2, §3, §4, §5, §6

[1] = A549, 48 hours exposure, concentration that produces 50% net cell killing, read-out: LC50 (the source's name)
[2] = A549, 48 hours exposure, total growth inhibition (cytostatic effect)
[3] = MDA-MB-231, 48 hours exposure, concentration that produces 50% net cell killing, read-out: LC50 (the source's name)
[4] = MDA-MB-231, 48 hours exposure, total growth inhibition (cytostatic effect)
[5] = HT-29, HT29, 48 hours exposure, concentration that produces 50% net cell killing, read-out: LC50 (the source's name)
[6] = MDA-MB-231, 48 h, read-out: LC50

Row | SMILES | GI50 (A549; A549, 48 hours exposure) [nM] | CC50 (A549; [1]) [nM] | IC (total growth inhibition) (A549; [2]) [µM] | GI50 (MDA-MB-231; MDA-MB-231, 48 hours exposure) [nM] | CC50 (MDA-MB-231; [3]) [nM] | IC (total growth inhibition) (MDA-MB-231; [4]) [µM] | GI50 (HT29; HT-29, HT29, 48 hours exposure) [nM] | CC50 (HT29; [5]) [nM] | IC (total growth inhibition) (HT29; HT-29, HT29, 48 hours exposure) [µM] | CC50 (A549; A549, 48 h, read-out: LC50) [nM] | CC50 (MDA-MB-231; [6]) [nM] | CC50 (HT29; HT-29, 48 h, read-out: LC50) [nM] | IC (total growth inhibition) (MDA-MB-231; MDA-MB-231, 48 h) [µM] | IC (total growth inhibition) (A549; A549, 48 h) [µM]
1 | COC1=CC[C@@H]([C@@H](C)/C=C(C)/C=C\C#CC(=O)N[C@H](C(=O)N/C=C\C[C@H](C/C=C(\C)Cl)O[Si](C)(C)C(C)(C)C)C(C)C)OC1=O [Compound 64b] | 680 | > 15100 | 3.33 | 1330 | > 15100 | > 15.1 | 423 | 2420 | 0.65 | – | – | – | – | –
2 | C/C=C\C[C@H](O)C/C=C\NC(=O)[C@@H](NC(=O)C#C/C=C\C(C)=C\[C@H](C)[C@@H]1CC=C(OC)C(=O)O1)C(C)(C)C [Compound 80] | 93 | – | 0.304 | 152 | – | > 19 | 49.4 | – | 0.0949 | > 19000 | > 19000 | > 19000 | – | –
3 | COC1=CC[C@@H]([C@@H](C)/C=C\C=C/C(=O)N[C@H](C(=O)N/C=C\C[C@H](C/C=C(\C)Cl)O[Si](C)(C)C(C)(C)C)C(C)(C)C)OC1=O [Compound 67] | 1570 | 4860 | 2.82 | 910 | 1210 | 1.04 | 1880 | 3140 | 2.35 | – | – | – | – | –
4 | C/C=C\C[C@@H](C/C=C\NC(=O)[C@@H](NC(=O)C#C/C=C\C(C)=C\[C@H](C)[C@@H]1CC=C(OC)C(=O)O1)C(C)(C)C)O[Si](c1ccccc1)(c1ccccc1)C(C)(C)C [Compound 79] | > 13100 | > 13100 | > 13.1 | > 13100 | > 13100 | > 13.1 | 5100 | > 13100 | > 13.1 | – | – | – | – | –
5 | C/C=C\C[C@@H](C/C=C\NC(=O)[C@@H](NC(=O)\C=C/C=C\C(C)=C\[C@H](C)[C@@H]1CC=C(OC)[C@H](O)O1)C(C)(C)C)OC(N)=O [Compound 89] | 0.138 | – | 0.000279 | 0.296 | – | – | 0.0802 | – | 0.000127 | 0.819 | > 1.74 | 0.227 | > 0.00174 | –
6 | COC1=CC[C@@H]([C@@H](C)/C=C(C)/C=C\C#CC(=O)N[C@H](C(=O)N/C=C\C[C@H](C/C=C(\C)Cl)OC(N)=O)C(C)(C)C)OC1=O [Compound 66a] | 33.1 | – | 0.397 | 44.7 | – | 0.778 | 12.1 | – | 0.0513 | > 16600 | > 16600 | 2810 | – | –
7 | COC1=CC[C@@H]([C@@H](C)/C=C(C)/C=C\C#CCCC(=O)N[C@H](C(=O)N/C=C\C[C@@H](O)C/C=C(\C)Cl)C(C)(C)C)OC1=O [Compound 99] | 3060 | – | 6.62 | 2720 | – | 6.11 | 900 | – | 2.21 | 12200 | 13200 | 5770 | – | –
8 | COC1=CC[C@@H]([C@@H](C)/C=C(C)/C=C\C#CC(=O)NC(C(=O)N/C=C\C[C@H](C/C=C(\C)Cl)O[Si](c2ccccc2)(c2ccccc2)C(C)(C)C)C(C)(C)C)OC1=O (stereo partly drawn) [Compound 78] | > 12500 | > 12500 | > 12.5 | > 12500 | > 12500 | > 12.5 | > 12500 | > 12500 | > 12.5 | – | – | – | – | –
9 | COC1=CC[C@@H]([C@@H](C)/C=C(C)/C=C\C#CC(=O)N[C@H](C(=O)N/C=C\C[C@H](C/C=C(\C)Cl)O[Si](C)(C)C(C)(C)C)C(C)(C)C)OC1=O [Compound 64a] | 4440 | > 14800 | > 14.8 | 4890 | > 14800 | > 14.8 | 2220 | > 14800 | 4.29 | – | – | – | – | –
10 | COC1=CC[C@@H]([C@@H](C)/C=C(C)/C=C\C=C/C(=O)N[C@H](C(=O)N/C=C\C[C@H](C/C=C(\C)Cl)OC(N)=O)C(C)(C)C)O[C@H]1O [Compound 85] | 0.723 | – | 0.00164 | 1.02 | – | 0.00181 | 0.345 | – | 0.000625 | > 16.4 | > 16.4 | 1.97 | – | –
11 | CC#CC[C@@H](C/C=C\NC(=O)[C@@H](NC(=O)\C=C/C=C\C(C)=C\[C@H](C)[C@@H]1CC=C(OC)C(=O)O1)C(C)(C)C)OC(N)=O [Compound 72] | 0.176 | – | 0.00281 | 0.246 | – | 0.00193 | 0.0579 | – | 0.000125 | > 176 | > 176 | > 176 | – | –
12 | COC1=CC[C@@H]([C@@H](C)/C=C\C=C/C(=O)N[C@H](C(=O)N/C=C\C[C@H](C/C=C(\C)Cl)OC(N)=O)C(C)(C)C)OC1=O [Compound 69] | 230 | – | – | 336 | – | 1.63 | 173 | – | 0.424 | > 17700 | 8130 | > 17700 | – | > 17.7
13 | CC#CC[C@@H](C/C=C\NC(=O)[C@@H](NC(=O)\C=C/C=C\C(C)=C\[C@H](C)[C@@H]1CC=C(OC)C(=O)O1)C(C)(C)C)O[Si](c1ccccc1)(c1ccccc1)C(C)(C)C [Compound 70] | 2090 | 3270 | 2.61 | 1700 | 3530 | 2.48 | 1960 | 4050 | 2.74 | – | – | – | – | –
14 | C/C=C\C[C@@H](C/C=C\NC(=O)[C@@H](NC(=O)C#C/C=C\C(C)=C\[C@H](C)[C@@H]1CC=C(OC)C(=O)O1)C(C)(C)C)OC(N)=O [Compound 81] | 2280 | – | 8.43 | 2980 | – | – | 1260 | – | 2.98 | > 17600 | > 17600 | > 17600 | > 17.6 | –
15 | CC#CC[C@H](O)C/C=C\NC(=O)[C@@H](NC(=O)\C=C/C=C\C(C)=C\[C@H](C)[C@@H]1CC=C(OC)C(=O)O1)C(C)(C)C [Compound 71] | 266 | – | 1.84 | 209 | – | 2.85 | 58.9 | – | 0.175 | 8540 | > 19000 | > 19000 | – | –
16 | COC1=CC[C@@H]([C@@H](C)/C=C(C)/C=C\C#CCCC(=O)N[C@H](C(=O)N/C=C\C[C@H](C/C=C(\C)Cl)O[Si](c2ccccc2)(c2ccccc2)C(C)(C)C)C(C)(C)C)OC1=O [Compound 98] | 111 | > 12100 | 0.495 | 104 | > 12100 | 0.181 | 53.2 | 169 | 0.0701 | – | – | – | – | –
17 | COC1=CC[C@@H]([C@@H](C)/C=C(C)/C=C\C#CCCC(=O)N[C@H](C(=O)N/C=C\C[C@H](C/C=C(\C)Cl)OC(N)=O)C(C)(C)C)OC1=O [Compound 100] | 395 | – | 2.21 | 348 | – | – | 53.8 | – | 0.301 | > 15800 | > 15800 | 7590 | > 15.8 | –
